Source: patent US6686361B2, “R-6-hydroxy-buspirone” (Bristol-Myers Squibb Company, priority 2001, dated 2004)

Tests used:
[1] = system: rat pup ultrasonic vocalizations; settings: functional testing, background; cited from earlier work
human 5-HT1A receptor [2] = biological target: T1, human 5-HT1A receptor (Homo sapiens, UniProt P08908); settings: preclinical studies, background; cited from earlier work
T1 construct: expressed in transfected cells; host or cells: HEK293
T1 sequence (P08908 1-422): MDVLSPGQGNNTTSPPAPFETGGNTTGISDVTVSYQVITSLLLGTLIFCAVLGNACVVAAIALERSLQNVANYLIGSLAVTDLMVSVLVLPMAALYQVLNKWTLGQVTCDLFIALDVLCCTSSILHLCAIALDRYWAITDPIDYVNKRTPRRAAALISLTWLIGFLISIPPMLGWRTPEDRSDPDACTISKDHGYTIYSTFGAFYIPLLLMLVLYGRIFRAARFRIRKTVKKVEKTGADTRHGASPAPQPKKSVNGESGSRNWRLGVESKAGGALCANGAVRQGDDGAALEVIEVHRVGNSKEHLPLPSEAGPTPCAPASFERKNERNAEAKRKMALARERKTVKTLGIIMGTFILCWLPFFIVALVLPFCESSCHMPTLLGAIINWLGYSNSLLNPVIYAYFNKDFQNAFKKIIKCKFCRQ

[3] = system: rat pup ultrasonic vocalizations; assay: Rat pup isolation-induced ultrasonic vocalization test; type: in vivo; settings: rat pups; for anxiolytic activity (ultrasonic vocalizations): 0.3 and 1 mg/kg s.c.
Description: Harlan Sprague-Dawley rat pups (male and female) were housed in polycarbonate cages with the dam until 9-11 days old. Thirty minutes before testing, pups were removed from the dam, placed into a new cage with a small amount of home bedding and brought into the lab and placed under a light to maintain body temperature at 37° C. Pups were then weighed, sexed, marked and returned to the litter group until behavioral assessment. Testing took place in a Plexiglas recording chamber that contained a metal plate maintained at (18-20° C.) with a 5×5 cm grid drawn on the plate. A microphone was suspended 10 cm above the plate to record ultrasonic vocalizations. Ultrasonic calls were recorded using the Noldus UltraVox system providing online analysis of the frequency and duration of calls. The number of grid cells entered by the pup was also collected by visual scoring. […] Immediately following the collection of the baseline measures, pups were injected with vehicle or drug subcutaneously at the nape of the neck and returned to its littermates. Thirty minutes later, pups were retested on each of the dependent measures (vocalization and grid cell crossings) to assess drug effects. Unless otherwise specified, each pup was used only once. Baseline differences and percent change from baseline for the frequency of ultrasonic vocalizations and grid cell crossings were analyzed using a one-way ANOVA. Bonferroni/Dunn post hoc comparisons were performed to assess the acute drug effects with vehicle control. Log-probit analysis was used to estimate the dose (milligrams per kilogram) of each agonist predicted to inhibit isolation-induced ultrasonic vocalizations by 50% (ID50). All comparison were made with an experimental type I error rate (α) set at 0.05.
Doses for each drug were administered in an irregular order across several litters. R-6-hydroxy-buspirone and racemic 6-hydroxy-buspirone were dissolved in physiological saline (0.9% NaCl; vehicle). All injections were administered subcutaneously in a volume of 10 ml/kg. Doses of the drug refer to weight of the salt.

D2(h) = D2(h) (Homo sapiens, UniProt P14416); assay: Receptor binding, D2(h)
Chain of D2(h) (P14416 whole entry): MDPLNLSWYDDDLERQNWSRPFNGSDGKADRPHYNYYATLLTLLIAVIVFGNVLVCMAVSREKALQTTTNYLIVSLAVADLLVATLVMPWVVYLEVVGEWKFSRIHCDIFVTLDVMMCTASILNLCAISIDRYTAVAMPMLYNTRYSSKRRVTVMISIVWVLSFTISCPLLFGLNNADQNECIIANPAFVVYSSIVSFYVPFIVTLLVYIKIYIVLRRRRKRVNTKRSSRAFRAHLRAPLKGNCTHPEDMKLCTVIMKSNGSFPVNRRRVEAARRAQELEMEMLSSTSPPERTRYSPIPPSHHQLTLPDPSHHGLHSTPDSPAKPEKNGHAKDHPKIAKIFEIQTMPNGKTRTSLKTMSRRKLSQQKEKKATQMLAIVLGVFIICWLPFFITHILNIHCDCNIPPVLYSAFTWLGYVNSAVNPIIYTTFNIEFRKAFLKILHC

human 5-HT1A receptor [4] = biological target: T1, human 5-HT1A receptor; assay: 5-HT1A receptor binding assay; settings: human 5-HT1A receptor expressed in HEK293 cells, 3H-8-OH-DPAT
Description: Membranes are prepared for binding using the human 5-HT1 A receptor expressed in HEK293 cells. Cells are collected and ruptured using a dounce homogenizer. The cells are spun at 18000×g for 10 minutes and the pellet is resuspended in assay buffer, frozen in liquid nitrogen and kept at −80° C. until the day of the assay.
A total of 30 ug protein is used per well. The assay is carried out in 96-deep-well plates. The assay buffer is 50 mM HEPES containing 2.5 mM MgCl2 and 2 mM EGTA. The membrane preparation is incubated at 25° C. for 60 minutes with 0.1 nM to 1000 nM test compound and 1 nM 3H-8-OH-DPAT. […] serotonin serves as blocking agent to determine non-specific binding. The reaction is terminated by the addition of 1 ml of ice cold 50 mM HEPES buffer and rapid filtration through a Brandel Cell Harvester using Whatman GF/B filters. The filter pads are counted in an LKB Trilux liquid scintillation counter. IC50 values are determined using non-linear regression by Excel-fit.

Ki (D2(h))	Ki (human 5-HT1A receptor [4])	SMILES	anxiolytic response in the rat pup ultrasonic vocalization test [1]	affinity for the human 5-HT1A receptor (human 5-HT1A receptor [2])	anxiolytic activity (ultrasonic vocalizations) [3]	animal movement, measured by crossing grid boundary lines ([3]; compared to animals dosed with the single enantiomer)
		O=C1CC2(CCCC2)C(O)C(=O)N1CCCCN1CCN(c2ncccn2)CC1 (racemic) [6-hydroxy-buspirone]	dose-dependent anxiolytic response	strong affinity	Statistically significant anxiolytic activity	appeared to be reduced
2.87 µM	0.014 µM	O=C1CC2(CCCC2)[C@@H](O)C(=O)N1CCCCN1CCN(c2ncccn2)CC1 [R-6-hydroxy-buspirone]			Statistically significant anxiolytic activity	
1.3 µM	0.024 µM	O=C1CC2(CCCC2)[C@H](O)C(=O)N1CCCCN1CCN(c2ncccn2)CC1 [S-6-hydroxy-buspirone]				
